“And” between values parts separate entries of the source, which are not always exact repeats. Equal values may be shown once.
Key:
15-LOX-1 = molecular target: T1, 15-LOX-1 (Homo sapiens, UniProt P16050); experiment: ABP-based ELISA assay with A549 cell lysate, 15-LOX-1; format: biochemical; set-up: the endogenous LOXs were captured on an anti‐LOX antibody precoated 96‐well plate; endogenous in cells; host or cells: A549 cell lysate
T1 sequence (P16050 1-662): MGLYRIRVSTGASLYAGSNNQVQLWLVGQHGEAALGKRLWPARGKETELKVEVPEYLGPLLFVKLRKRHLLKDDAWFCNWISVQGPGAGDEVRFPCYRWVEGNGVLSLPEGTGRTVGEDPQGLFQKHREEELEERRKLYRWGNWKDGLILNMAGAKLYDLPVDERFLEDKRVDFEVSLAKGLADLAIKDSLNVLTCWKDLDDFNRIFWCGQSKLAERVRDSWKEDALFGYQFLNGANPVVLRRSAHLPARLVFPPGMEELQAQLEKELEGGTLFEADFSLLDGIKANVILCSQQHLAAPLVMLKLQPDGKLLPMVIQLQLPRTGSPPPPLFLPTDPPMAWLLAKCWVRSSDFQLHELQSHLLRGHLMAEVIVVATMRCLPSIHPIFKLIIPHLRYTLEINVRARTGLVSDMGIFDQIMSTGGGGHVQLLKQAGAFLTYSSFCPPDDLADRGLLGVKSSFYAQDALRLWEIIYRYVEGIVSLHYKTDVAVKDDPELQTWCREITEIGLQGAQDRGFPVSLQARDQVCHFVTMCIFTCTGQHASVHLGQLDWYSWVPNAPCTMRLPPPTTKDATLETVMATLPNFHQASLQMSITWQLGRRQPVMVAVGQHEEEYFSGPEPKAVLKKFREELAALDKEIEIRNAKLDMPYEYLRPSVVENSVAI
Procedure: (§1) A549 cell lysate was treated with a serial dilution of the respective inhibitor. Subsequently, samples were labeled by treatment with 1 μM of Labelox B for 1 min. […] Data are mean±s.d., n≥3 independent experiments. […]
(§2) 1.6. Immunoblotting Analysis […]
(§3) 1.7. ABPP-based LOX inhibitor specificity validation
(§4) A549 cells were lysed by RIPA buffer supplemented with 1x PIC. After sonication and centrifugation, the supernatant was collected, and the protein concentration was determined by a Pierce BCA Protein Assay Kit (Thermo Fisher Scientific, USA). The lysates were then diluted with PBS to 300 ng/µl and stored in -20°C. To label endogenous LOXs with Labelox B under the competition condition, 180 µl diluted lysates were incubated with 200 µl different LOX inhibitor solution (in PBS) with desired concentrations for 18 min to inhibit LOXs activity. Later, 20 µl of a 20 µM Labelox B (in PBS) was added and incubated shortly for 2 min, followed by adding 50 µl of a 0.5 M EDTA to stop the labeling reaction. The reaction mixture was 450 µl in total. Inhibitors and Labelox B were absent in positive and […]
(§5) negative control, respectively. To detect the competition labeling of Labelox B among different LOXs, a high-binding 96-well plate (Greiner, #M4561) was coated with 5-LOX (#ab169755, Abcam), 12-LOX […]
(§6) (1:500 dilution in PBS) for overnight at 4°C. After washing triply with 0.05%PBST, the plate was blocked with 2% (w/v) BSA in PBST. Subsequently, 100 µl of each reaction mixture was added to the LOX-antibody-coated wells. There are four LOX antibodies used for coating. Therefore, in total, 400 µl mixture is needed for each reaction. After one hour of incubation, LOXs were pulled down by antibodies accordingly. Next, 100 µl of HRP-conjugated streptavidin (1:2000 dilution in PBS, Thermo Fisher Scientific, USA) was added to each well to detect the D04 labeled LOXs among precipitated LOXs. After washing with PBST, 100 µl of mixed HRP substrate reagent (R&D Systems, Minneapolis, USA) was added, and the colorizing reaction was stopped by adding 100 µl of 1M sulfuric acid. The absorbance at […]

12-LOX = molecular target: T2, 12-LOX (Homo sapiens, UniProt P18054); experiment: ABP-based ELISA assay with A549 cell lysate, 12-LOX; format: biochemical
T2 construct: the endogenous LOXs were captured on an anti‐LOX antibody precoated 96‐well plate; endogenous in cells; host or cells: A549 cell lysate
T2 sequence (P18054 1-663): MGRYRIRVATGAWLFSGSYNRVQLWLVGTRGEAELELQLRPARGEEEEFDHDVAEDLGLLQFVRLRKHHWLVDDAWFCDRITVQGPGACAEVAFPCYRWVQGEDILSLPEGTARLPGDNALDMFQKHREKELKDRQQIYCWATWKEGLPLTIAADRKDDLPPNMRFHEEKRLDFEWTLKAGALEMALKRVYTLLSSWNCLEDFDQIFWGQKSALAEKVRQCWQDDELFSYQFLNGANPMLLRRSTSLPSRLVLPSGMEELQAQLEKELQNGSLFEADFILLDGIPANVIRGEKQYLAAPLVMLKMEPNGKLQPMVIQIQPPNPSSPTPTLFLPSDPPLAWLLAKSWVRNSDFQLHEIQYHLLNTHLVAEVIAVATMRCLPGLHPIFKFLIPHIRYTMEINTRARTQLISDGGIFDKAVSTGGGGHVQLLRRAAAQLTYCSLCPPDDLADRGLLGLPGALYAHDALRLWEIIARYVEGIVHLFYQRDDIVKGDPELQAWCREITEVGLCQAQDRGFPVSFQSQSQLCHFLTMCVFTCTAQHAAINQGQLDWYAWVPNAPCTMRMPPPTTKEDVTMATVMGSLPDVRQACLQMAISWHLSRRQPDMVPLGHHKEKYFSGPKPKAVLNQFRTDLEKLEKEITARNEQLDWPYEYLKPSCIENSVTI
Procedure: as §1, §2, §3, §4, §5, §6

SMILES	HillSlope Value (15-LOX-1)	IC50 (15-LOX-1; 1 μM Labelox B) [µM]	HillSlope Value (12-LOX)	IC50 (12-LOX; 1 μM Labelox B)
c1ccc2c(c1)SCc1c-2[nH]c2ccccc12 [PD146176]	-0.93	17.3	-0.98	~17 µM and 19.1 µM
O=c1cc(-c2ccccc2)oc2cc(O)c(O)c(O)c12 [Baicalein]	-0.47	–	-0.41	–

— PMC8518382, “Identification of a Bromodomain‐like Region in 15‐Lipoxygenase‐1 Explains Its Nuclear Localization” (Angewandte Chemie (International Ed. in English), 2021)
